Like-named read-outs stand apart in the source and are kept apart here.
Legend:
[1] = test system: cisplatin-resistant ovarian cancer cell line A2780cis; experiment: CellTiter-Blue cell viability assay, compound alone or with cisplatin or carboplatin, 24 h; type: cell-based, human; details: for viability at 10 µM / viability at 20 µM / viability at 50 µM: Homo sapiens, A2780cis, read-out: survival (%) of cells with compound alone; for viability at 10 µM / viability at 20 µM / viability at 50 µM / survival (%) of cells with compound and cisplatin (20 μM) / Survival (%) of cells with compound and carboplatin (200 μM) / survival (%) of cells with compound alone: 24 h; for response in the CellTiter-Blue cell viability assay: in words
Method: Data were expressed as mean±standard deviation. A Student's t test was used for the comparisons between the treatment with the combination of analogs with cisplatin and with analogs alone. P<0.05 was considered statistically significant. Combination index was calculated using CompuSyn software. A value of 0.3-0.7 for the combination index indicates synergism, 0.1-0.3 indicates strong synergism, and <0.1 indicates very strong synergism (Chou, 2006).
To further validate the activity of the identified 11 active compounds (see FIG. 3), a CellTiter-Blue cell viability assay was performed with increasing concentrations (10 μM, 20 μM and 50 μM) of the disclosed compounds (see FIG. 4 and Table 5). Cisplatin resistant ovarian cancer cells (A2780cis) were treated with a disclosed compound alone, cisplatin alone or a combination of a compound with cisplatin for 24 h to determine the effects of the compounds on cell viability.
Analysis of the effect of the disclosed compounds with another platinum-containing compound, carboplatin, was performed. A2780cis cells were treated with carboplatin alone or with the combination of carboplatin and the disclosed compounds at indicated concentrations for 24 h followed by the analysis of cell viability.

[2] = test system: cisplatin-resistant ovarian cancer cell line A2780cis; experiment: Caspase-3/7 activity assay (apoptotic cell death), compound alone or with cisplatin; type: cell-based, human; details: for caspase-3/7 activity (Lum), compound with cisplatin / caspase-3/7 activity (Lum), compound alone / caspase-3/7 activity (Lum) with compound and cisplatin (20 μM) / caspase-3/7 activity (Lum) with compound alone: 20 h; for activity in the screen (Caspase-3/7 activity and microscopic examination), active / inactive: alone or in the presence of cisplatin; for activity in the screen (Caspase-3/7 activity and microscopic examination), active / inactive / Caspase-3/7 activity upon combination with cisplatin compared to cisplatin alone or compound alone / activity in the Caspase-3/7 activity assay: in words; for activity in the Caspase-3/7 activity assay: possibly interference with the assay system; for caspase-3/7 activity (Lum) with compound and cisplatin (20 μM) / caspase-3/7 activity (Lum) with compound alone: Table 6; for caspase-3/7 activity (Lum) with compound alone: untreated cells 9 ± 1
Method: Cell proliferation was determined using a CyQUANT Direct Cell Proliferation Assay kit (Invitrogen), the activity of caspase-3/7 was measured using a Caspase-Glo 3/7 Assay Systems (Promega, Madison, Wis.), and the MTS calorimetric survival assay was performed using the CellTiter 96 AQueous One Solution Cell Proliferation Assay kit (Promega, Madison, Wis.), according to the manufacturer's instructions. The survival fractions were calculated after setting untreated control cells at 100%. The data were plotted and curve fitted using GraphPad Prism software. To quantify the number of cells with active caspase-3, cells were fixed with 4% paraformaldehyde (Electron microscopy sciences, Hatfield, Pa.), stained with Alexa Fluor-488 conjugated antibody against cleaved caspase-3 (Asp175) (Cell Signaling Technology, Danvers, Mass.) followed by flow cytometry. An FITC Annexin V Apoptosis Detection Kit (BD PharMingen, San Diego, Calif.) was used to quantify apoptotic cells, according to the manufacturer's instructions.
A Caspase-3/7 assay was performed to evaluate the activity of the 36 compounds of FIG. 1 in vitro in the cisplatin-resistant ovarian cancer cell line, A2780cis, alone or in the presence of cisplatin. A microscopic examination of apoptotic morphologic changes was also carried out right before the measurement of Caspase-3/7 activity, in order to confirm that the data on the activation of the Caspase-3/7 following treatment is consistent with morphological change and reflects cell death.

[3] = compound 10 μM, untreated cells = 100%
[4] = compound 20 μM, untreated cells = 100%
[5] = compound 50 μM, untreated cells = 100%
[6] = compound 10 μM + cisplatin 20 μM
[7] = compound 20 μM + cisplatin 20 μM
[8] = compound 50 μM + cisplatin 20 μM
[9] = Table 1, compound 20 μM with 20 μM cisplatin
[10] = Table 1, compound 20 μM, mean ± S.D. of triplicates
[11] = Table 3, compound 20 μM with 20 μM of cisplatin

SMILES	viability at 10 µM [1, 3]	viability at 20 µM [1, 4]	viability at 50 µM [1, 5]	survival (%) of cells with compound and cisplatin (20 μM) [1, 6]	survival (%) of cells with compound and cisplatin (20 μM) [1, 7]	survival (%) of cells with compound and cisplatin (20 μM) [1, 8]	activity in the screen (Caspase-3/7 activity and microscopic examination), active / inactive [2]	caspase-3/7 activity (Lum), compound with cisplatin [2, 11]	caspase-3/7 activity (Lum), compound alone ([2]; Table 3, compound 20 μM)	caspase-3/7 activity (Lum), compound alone ([2]; Table 4, compound 20 μM)	other results
O=c1c2ccccc2[nH]c(=S)n1Cc1cccnc1 [Compound 1-4]	95.9 ± 2.4%	95.6 ± 1.3%	91.8 ± 2.9%	89.8 ± 0.1%	61.2 ± 3.4%	20.9 ± 1.3%	active	–	–	–	caspase-3/7 activity (Lum), compound with cisplatin [2, 9]: 93 ± 5 Lum; caspase-3/7 activity (Lum), compound alone [2, 10]: 13 ± 1 Lum; caspase-3/7 activity (Lum), compound alone ([2]; Table 2, compound 20 μM): 13 ± 1 Lum; Caspase-3/7 activity upon combination with cisplatin compared to cisplatin alone or compound alone [2]: increase in Caspase-3/7 activity
Cc1cccc(-n2c(=S)[nH]c3cc(Cl)ccc3c2=O)c1C [Compound 1-21]	102 ± 1.4%	100 ± 1.5%	84.9 ± 2.9%	90.8 ± 1.4%	63.1 ± 6.8%	26.7 ± 2.0%	active	–	–	–	caspase-3/7 activity (Lum), compound with cisplatin [2, 9]: 90 ± 6 Lum; caspase-3/7 activity (Lum), compound alone [2, 10]: 17 ± 3 Lum; caspase-3/7 activity (Lum), compound alone ([2]; Table 2, compound 20 μM): 17 ± 3 Lum; Caspase-3/7 activity upon combination with cisplatin compared to cisplatin alone or compound alone [2]: increase in Caspase-3/7 activity
O=c1c2ccccc2[nH]c(=S)n1Cc1ccccc1 [Compound 1-30]	95 ± 2.6%	95.4 ± 0.9%	98.1 ± 0.9%	73.4 ± 6.9%	52.4 ± 1.2%	53.2 ± 5.0%	active	–	–	–	caspase-3/7 activity (Lum), compound with cisplatin [2, 9]: 111 ± 8 Lum; caspase-3/7 activity (Lum), compound alone [2, 10]: 18 ± 2 Lum; caspase-3/7 activity (Lum), compound alone ([2]; Table 2, compound 20 μM): 18 ± 2 Lum; Caspase-3/7 activity upon combination with cisplatin compared to cisplatin alone or compound alone [2]: increase in Caspase-3/7 activity
O=C1NC(=S)NC(=O)C1=Cc1c[nH]c2ccccc12 [Compound 2-7]	–	–	–	91.9 ± 14.0%	76.1 ± 6.6%	39.4 ± 5.2%	active	41 ± 3 Lum	25 ± 1 Lum	25 ± 1 Lum	viability at 10 µM [1]: 97 ± 1.5%; viability at 20 µM [1]: 93.3 ± 3.6%; viability at 50 µM [1]: 47.2 ± 1.8%
Cc1ccc(NC(=S)NC(=O)c2cccs2)nc1 [Compound 2-19]	97.3 ± 1.8%	95.9 ± 2.1%	95.1 ± 6.4%	100.4 ± 1.2%	85.4 ± 9.6%	53.2 ± 16.0%	active	50 ± 8 Lum	9 ± 1 Lum	9 ± 1 Lum	–
COc1ccc(C(C)=C2C(=O)NC(=S)NC2=O)cc1 [Compound 2-25]	–	–	–	–	–	–	–	24 ± 2 Lum	6 ± 0 Lum	–	–
COc1ccc(C(C)=C2C(=O)NC(=S)NC2=O)cc1OC [Compound 2-26]	–	–	–	–	–	–	–	21 ± 4 Lum	6 ± 0 Lum	–	–
CCCN1C(=O)C(=C(C)NC2CCC(C)CC2)C(=O)NC1=S (centres unmarked) [Compound 2-27]	–	–	–	–	–	–	–	19 ± 3 Lum	7 ± 1 Lum	–	–
O=C(NC(=S)NCCc1ccccc1)C1CCCCC1 [Compound 2-28]	–	–	–	–	–	–	–	18 ± 2 Lum	7 ± 1 Lum	–	–
NC(=O)c1ccccc1NC(=S)NC(=O)c1ccco1 [Compound 2-29]	–	–	–	–	–	–	–	19 ± 3 Lum	7 ± 1 Lum	–	–
O=C(NC(=S)NCc1ccccc1)C1CCCCC1 [Compound 2-30]	–	–	–	–	–	–	–	20 ± 5 Lum	6 ± 0 Lum	–	–
O=C(NC(=S)Nc1ccccn1)c1ccccc1 [Compound 2-32]	97.2 ± 2.9%	96 ± 1.7%	81.8 ± 5.2%	102.7 ± 3.9%	64.9 ± 10.6%	33.4 ± 11.8%	active	4 ± 1 Lum	0 ± 1 Lum	0 ± 1 Lum	response in the CellTiter-Blue cell viability assay [1]: positive response; activity in the Caspase-3/7 activity assay [2]: lack of activity
CC(C)C(=O)NC(=S)Nc1nc2ccc(Cl)cc2s1 [Compound 2-33]	84.8 ± 4.1%	77.9 ± 1.1%	65 ± 6.4%	92.5 ± 4.8%	70.4 ± 4.9%	58.6 ± 7.4%	active	23 ± 3 Lum	11 ± 2 Lum	11 ± 2 Lum	response in the CellTiter-Blue cell viability assay [1]: positive response; activity in the Caspase-3/7 activity assay [2]: lack of activity
COc1cc(-n2c(=S)[nH]c3ccccc3c2=O)c(Cl)cc1Cl [mdivi-1, reference compound]	–	–	–	87.4 ± 2.9%	39.2 ± 2.7%	26.3 ± 3.4%	–	80 ± 11 Lum	20 ± 3 Lum	20 ± 3 Lum	Survival (%) of cells with compound and carboplatin (200 μM) ([1]; compound 10 μM + carboplatin 200 μM): 92.6 ± 3.5%; survival (%) of cells with compound alone [1, 3]: 98.4 ± 2.4%; Survival (%) of cells with compound and carboplatin (200 μM) ([1]; compound 20 μM + carboplatin 200 μM): 75.1 ± 3.9%; survival (%) of cells with compound alone [1, 4]: 78.4 ± 3.8%; Survival (%) of cells with compound and carboplatin (200 μM) ([1]; compound 50 μM + carboplatin 200 μM): 40.6 ± 3.0%; survival (%) of cells with compound alone [1, 5]: 61.6 ± 4.4%; caspase-3/7 activity (Lum), compound with cisplatin [2, 9]: 102 ± 3 Lum; caspase-3/7 activity (Lum), compound alone [2, 10]: 28 ± 5 Lum; caspase-3/7 activity (Lum), compound alone ([2]; Table 2, compound 20 μM): 28 ± 5 Lum; caspase-3/7 activity (Lum) with compound and cisplatin (20 μM) ([2]; compound 5 μM + cisplatin 20 μM): 22 ± 2 Lum; caspase-3/7 activity (Lum) with compound alone ([2]; compound 5 μM): 10 ± 1 Lum; caspase-3/7 activity (Lum) with compound and cisplatin (20 μM) [2, 6]: 24 ± 3 Lum; caspase-3/7 activity (Lum) with compound alone ([2]; compound 10 μM): 10 ± 1 Lum; caspase-3/7 activity (Lum) with compound and cisplatin (20 μM) [2, 7]: 84 ± 3 Lum; caspase-3/7 activity (Lum) with compound alone ([2]; compound 20 μM): 24 ± 2 Lum

From patent publication US10478437B2, “Combination therapy to enhance the anticancer efficacy of platinum drugs” (University of Pittsburgh-of the Commonwealth System of …, priority 2014, dated 2019)
